The values below come from the NIST ThermoML archive (doi:10.1016/j.jct.2012.08.009).

Structures are written as SMILES. Numbers after ± are expanded uncertainties.

A short description of the first data set: refractive index (Na D-line) (dimensionless). The following applies: 293.15 K; 101.33 kPa; Liquid; Standard Abbe refractometry.
In general, refractive index refers to a measure of how strongly the sample bends light. Consider `CC(=O)O` [acetic acid], for which the refractive index was 1.372 ± 0.0028.

`CCO` [ethanol]: the refractive index amounted to 1.3612 ± 0.0028.

In the case of `CO` [methanol], the refractive index is 1.328 ± 0.0027.

As to `O` [water], the refractive index stood at 1.3342 ± 0.0028.

Assay in a further data set: not given
The following applies: 293.15 K; 101.33 kPa; Liquid; Pycnometric method.
In general, mass density refers to mass per unit of volume. For the compound `CC(=O)O` [acetic acid], the mass density was determined as 1055 ± 4.1 kg/m3.

Take `CCO` [ethanol]: the mass density amounted to 790 ± 2.1 kg/m3.

In the case of `CO` [methanol], the mass density was found to be 793 ± 2.1 kg/m3.

As to `O` [water], the mass density is recorded as 999 ± 2.2 kg/m3.

The data set is the same for the next values; noted with them: Liquid; Ebulliometric method (Recirculating still).
With `CC(=O)O` [acetic acid], the Normal boiling temperature turned out to be 118.0 ± 0.51 °C.

With `CCO` [ethanol], the Normal boiling temperature is 78.20 ± 0.51 °C.

Turning to `CO` [methanol], the Normal boiling temperature was 64.70 ± 0.51 °C.

Consider `O` [water], for which the Normal boiling temperature was found to be 100.0 ± 0.5 °C.

Another data set in a line: relative permittivity at zero frequency (dimensionless); xn = mol fraction of the nth substance listed. The conditions noted are these: 293.15 K; 91.3 kPa; Liquid; Coaxial cylinder capacitor; x1 = 0.05.
`CC(=O)O` [acetic acid] + O: the “relative permittivity at zero frequency” value was 73.5 ± 0.23.

`CCO` [ethanol] + O: the “relative permittivity at zero frequency” value is listed as 74.7 ± 0.24.

In the case of `CO` [methanol] + O, the “relative permittivity at zero frequency” value came to 76.058 ± 0.24.

The data set is the same for the next values; noted with them: 293.15 K; 91.3 kPa; Liquid; Coaxial cylinder capacitor; x1 = 0.1.
As to `CC(=O)O` [acetic acid] + O, the “relative permittivity at zero frequency” value was 67.7 ± 0.22.

As for `CCO` [ethanol] + O, the “relative permittivity at zero frequency” value was determined as 69.4 ± 0.22.

Regarding `CO` [methanol] + O, the “relative permittivity at zero frequency” value turned out to be 72.27 ± 0.23.

The data set is the same for the next values; noted with them: 293.15 K; 91.3 kPa; Liquid; Coaxial cylinder capacitor; x1 = 0.2.
Turning to `CC(=O)O` [acetic acid] + O, the “relative permittivity at zero frequency” value turned out to be 58 ± 0.18.

Turning to `CCO` [ethanol] + O, the “relative permittivity at zero frequency” value came to 59.98 ± 0.19.

Turning to `CO` [methanol] + O, the “relative permittivity at zero frequency” value was found to be 65.58 ± 0.21.

The data set is the same for the next values; noted with them: 293.15 K; 91.3 kPa; Liquid; Coaxial cylinder capacitor; x1 = 0.3.
Consider `CC(=O)O` [acetic acid] + O, for which the “relative permittivity at zero frequency” value is listed as 49.4 ± 0.16.

For `CCO` [ethanol] + O, the “relative permittivity at zero frequency” value turned out to be 52.2 ± 0.17.

Consider `CO` [methanol] + O, for which the “relative permittivity at zero frequency” value came to 59.67 ± 0.19.

Staying with this data set, now noted: 293.15 K; 91.3 kPa; Liquid; Coaxial cylinder capacitor; x1 = 0.4.
For the compound `CC(=O)O` [acetic acid] + O, the “relative permittivity at zero frequency” value was determined as 41.8 ± 0.13.

On to `CCO` [ethanol] + O, for which the “relative permittivity at zero frequency” value was found to be 46.1 ± 0.15.

On to `CO` [methanol] + O, for which the “relative permittivity at zero frequency” value is 54.7 ± 0.17.

The same data set, now with this note: 293.15 K; 91.3 kPa; Liquid; Coaxial cylinder capacitor; x1 = 0.5.
`CC(=O)O` [acetic acid] + O: the “relative permittivity at zero frequency” value was 34.9 ± 0.11.

`CCO` [ethanol] + O: the “relative permittivity at zero frequency” value was found to be 41.1 ± 0.13.

As to `CO` [methanol] + O, the “relative permittivity at zero frequency” value amounted to 50.22 ± 0.16.

The data set is the same for the next values; noted with them: 293.15 K; 91.3 kPa; Liquid; Coaxial cylinder capacitor; x1 = 0.6.
As to `CC(=O)O` [acetic acid] + O, the “relative permittivity at zero frequency” value stood at 28.5 ± 0.09.

For the compound `CCO` [ethanol] + O, the “relative permittivity at zero frequency” value is 37.01 ± 0.12.

Regarding `CO` [methanol] + O, the “relative permittivity at zero frequency” value is 46.22 ± 0.15.

Still in this data set, the particulars now being: 293.15 K; 91.3 kPa; Liquid; Coaxial cylinder capacitor; x1 = 0.7.
With `CC(=O)O` [acetic acid] + O, the “relative permittivity at zero frequency” value stood at 22.41 ± 0.07.

Regarding `CCO` [ethanol] + O, the “relative permittivity at zero frequency” value was determined as 33.5 ± 0.11.

In the case of `CO` [methanol] + O, the “relative permittivity at zero frequency” value is recorded as 42.54 ± 0.14.

Staying with this data set, now noted: 293.15 K; 91.3 kPa; Liquid; Coaxial cylinder capacitor; x1 = 0.8.
Consider `CC(=O)O` [acetic acid] + O, for which the “relative permittivity at zero frequency” value was 16.55 ± 0.05.

With `CCO` [ethanol] + O, the “relative permittivity at zero frequency” value came to 30.36 ± 0.1.

On to `CO` [methanol] + O, for which the “relative permittivity at zero frequency” value came to 39.18 ± 0.12.

Still in this data set, the particulars now being: 293.15 K; 91.3 kPa; Liquid; Coaxial cylinder capacitor; x1 = 0.9.
Regarding `CC(=O)O` [acetic acid] + O, the “relative permittivity at zero frequency” value came out at 11.11 ± 0.04.

Regarding `CCO` [ethanol] + O, the “relative permittivity at zero frequency” value is listed as 27.55 ± 0.09.

As for `CO` [methanol] + O, the “relative permittivity at zero frequency” value came to 36.1 ± 0.12.

Still in this data set, the particulars now being: 293.15 K; 91.3 kPa; Liquid; Coaxial cylinder capacitor; x1 = 0.95.
`CC(=O)O` [acetic acid] + O: the “relative permittivity at zero frequency” value worked out at 8.64 ± 0.03.

`CCO` [ethanol] + O: the “relative permittivity at zero frequency” value turned out to be 26.28 ± 0.08.

In the case of `CO` [methanol] + O, the “relative permittivity at zero frequency” value is listed as 34.65 ± 0.11.

The same data set, now with this note: 293.15 K; 91.3 kPa; Liquid; Coaxial cylinder capacitor; x1 = 0.98.
Consider `CC(=O)O` [acetic acid] + O, for which the “relative permittivity at zero frequency” value worked out at 7.25 ± 0.02.

`CCO` [ethanol] + O: the “relative permittivity at zero frequency” value is 25.53 ± 0.08.

As for `CO` [methanol] + O, the “relative permittivity at zero frequency” value is on record as 33.72 ± 0.11.

The same data set, now with this note: 293.15 K; 91.3 kPa; Liquid; Coaxial cylinder capacitor; x1 = 1.
Regarding `CC(=O)O` [acetic acid] + O, the “relative permittivity at zero frequency” value is listed as 6.15 ± 0.02.

`CCO` [ethanol] + O: the “relative permittivity at zero frequency” value is given as 25.02 ± 0.08.

As for `CO` [methanol] + O, the “relative permittivity at zero frequency” value is listed as 33 ± 0.11.

The data set is the same for the next values; noted with them: 293.15 K; 91.3 kPa; Liquid; Coaxial cylinder capacitor; x2 = 0.
Consider `O` [water] + CC(=O)O, for which the “relative permittivity at zero frequency” value is listed as 79.99 ± 0.25.

Turning to `O` [water] + CCO, the “relative permittivity at zero frequency” value was found to be 79.99 ± 0.25.

With `O` [water] + CO, the “relative permittivity at zero frequency” value stood at 79.99 ± 0.25.

The next data set is described as follows: relative permittivity at zero frequency (dimensionless). The conditions noted are these: 293.15 K; 91.3 kPa; Liquid; Coaxial cylinder capacitor.
In the case of `CC(=O)O` [acetic acid], the “relative permittivity at zero frequency” value is 6.15 ± 0.02.

As to `CCO` [ethanol], the “relative permittivity at zero frequency” value was found to be 25.02 ± 0.08.

For the compound `CO` [methanol], the “relative permittivity at zero frequency” value is 33 ± 0.11.

Regarding `O` [water], the “relative permittivity at zero frequency” value worked out at 79.99 ± 0.25.
